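All cell lines were grown in 96-well plates and treated with compound for 48 hours. Abbreviation: GI50, concentration required for 50% inhibition of growth.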 Calls of active or inactive are those of the source. No stated cut-off is given here; in the data, active = GI50 up to about 1.1 µM and inactive = higher.
Experiments:
Test in all cases: NCI-60 cell line screen, 48 h
[1] = tested on: 786-0
[2] = tested on: A498
[3] = tested on: COLO 205
[4] = tested on: DU-145
[5] = tested on: HL-60
[6] = tested on: HT-29
[7] = tested on: KM12
[8] = tested on: OVCAR-5
[9] = tested on: OVCAR-8
[10] = tested on: SF-539
[11] = tested on: SK-OV-3
[12] = tested on: SNB-19
[13] = tested on: SNB-75
[14] = tested on: SR
[15] = tested on: SW-620
[16] = tested on: TK-10
[17] = tested on: U-251
[18] = tested on: NCI-H522
[19] = tested on: OVCAR-4

Measured: GI50

C=CCOC(=O)Cn1ccc(=O)[nH]c1=O
inactive: [1] > 100 µM | [2] > 100 µM | [3] > 100 µM | [4] > 100 µM | [5] > 100 µM | [6] > 100 µM | [7] > 100 µM | [8] > 100 µM | [9] > 100 µM | [10] > 100 µM | [11] > 100 µM | [12] > 100 µM | [13] > 100 µM | [14] > 100 µM | [15] > 100 µM | [16] > 100 µM | [17] > 100 µM

Cc1cc(=O)cc2sc3cc(Cl)ccc3nc1-2
inactive: [1] 12 µM | [2] 19.9 µM | [3] 22.3 µM | [5] 2.66 µM | [6] 20.3 µM | [7] 4.5 µM | [18] 2.54 µM | [19] 22.2 µM | [8] 21.1 µM | [9] 8.99 µM | [10] 7.66 µM | [11] 20.7 µM | [12] 5.93 µM | [13] 3.24 µM | [14] 3.07 µM | [15] 6.9 µM | [16] 25.4 µM | [17] 6.53 µM

COC(=O)CCN1CCN(CCO)CC1C (centres undefined)
inactive: [1] > 10 µM | [2] > 10 µM | [3] > 10 µM | [4] > 10 µM | [5] > 10 µM | [6] > 10 µM | [7] > 10 µM | [18] > 10 µM | [19] > 10 µM | [9] > 10 µM | [10] > 10 µM | [11] > 10 µM | [12] > 10 µM | [13] > 10 µM | [14] > 10 µM | [15] > 10 µM | [16] > 10 µM | [17] > 10 µM

CN(C)CCCCC1CCN(CC(=O)N2c3ccccc3NC(=O)c3ccccc32)CC1
inactive: [1] > 100 µM | [2] > 100 µM | [3] > 100 µM | [5] > 100 µM | [6] 61.2 µM | [7] > 100 µM | [18] > 100 µM | [19] > 100 µM | [9] > 100 µM | [10] > 100 µM | [11] > 100 µM | [12] > 100 µM | [13] > 100 µM | [14] > 100 µM | [15] > 100 µM | [16] > 100 µM

O=C(O)CCCC#CCCCC(=O)O
inactive: [1] > 100 µM | [2] > 100 µM | [3] > 100 µM | [4] > 100 µM | [6] > 100 µM | [7] > 100 µM | [18] > 100 µM | [19] > 100 µM | [8] > 100 µM | [9] > 100 µM | [10] > 100 µM | [11] > 100 µM | [12] > 100 µM | [13] 43.5 µM | [14] > 100 µM | [16] > 100 µM | [17] > 100 µM

O=C(CC1(O)C(=O)Nc2c(Cl)cc(Cl)cc21)c1ccc([N+](=O)[O-])cc1 (centres undefined)
inactive: [1] 85.3 µM | [2] 29.9 µM | [3] > 58.5 µM | [5] 7.89 µM | [6] > 58.9 µM | [7] > 54.8 µM | [18] 19.4 µM | [19] 17.5 µM | [8] > 100 µM | [9] > 51.5 µM | [10] > 46.7 µM | [11] > 100 µM | [12] > 100 µM | [13] 29.2 µM | [14] > 51.3 µM | [15] 28.3 µM | [16] > 100 µM | [17] 31.7 µM

C=C(C(=O)OC)[C@H]1CC/C(C)=C/CC/C(C)=C/CC[C@@]2(C)O[C@@H]2C1
inactive: [1] 15.5 µM | [2] 22.1 µM | [3] 15 µM | [4] 21.9 µM | [5] 13 µM | [6] 17.3 µM | [7] 16.5 µM | [18] 18.2 µM | [19] 26.8 µM | [8] 23.4 µM | [9] 13.8 µM | [10] 17.9 µM | [11] 43.7 µM | [12] > 100 µM | [13] 65.2 µM | [15] 18.5 µM | [16] 21.5 µM | [17] 20.1 µM

O=c1c(C(c2ccco2)c2c(O)oc3ccccc3c2=O)c(O)oc2ccccc12
inactive: [1] 25.1 µM | [2] > 100 µM | [3] 22.3 µM | [4] > 100 µM | [5] 67.5 µM | [6] 47.6 µM | [7] > 100 µM | [18] 19.5 µM | [19] 70.8 µM | [9] 27.4 µM | [12] 44.6 µM | [13] 28.1 µM | [15] 21.4 µM | [16] 26.7 µM | [17] 27.2 µM

O=C1/C(=N\O)S(=O)(=O)c2ccccc21
inactive: [1] > 100 µM | [2] > 100 µM | [3] > 100 µM | [5] > 100 µM | [6] 92.7 µM | [7] > 100 µM | [18] > 100 µM | [19] > 100 µM | [8] > 100 µM | [9] > 100 µM | [10] > 100 µM | [11] > 100 µM | [12] > 100 µM | [13] > 100 µM | [14] > 100 µM | [15] > 100 µM | [16] > 100 µM | [17] > 100 µM

O=C1C2Cc3ccccc3CN2C(=O)N1CCN1CCOCC1 (centres undefined)
inactive: [1] > 100 µM | [2] > 100 µM | [3] > 100 µM | [5] > 100 µM | [7] > 100 µM | [18] > 100 µM | [19] > 100 µM | [8] > 100 µM | [9] > 100 µM | [10] > 100 µM | [12] > 100 µM | [14] > 100 µM | [15] > 100 µM | [16] > 100 µM | [17] > 100 µM

O=S(=O)(c1ccccc1)n1cnc(CCc2ccccc2)n1
inactive: [1] > 100 µM | [2] > 100 µM | [3] > 100 µM | [5] > 100 µM | [6] > 100 µM | [7] > 100 µM | [18] > 100 µM | [19] > 100 µM | [8] > 100 µM | [9] > 100 µM | [10] > 100 µM | [11] > 100 µM | [13] 45.1 µM | [14] > 100 µM | [15] > 100 µM | [16] > 100 µM | [17] > 100 µM

O=C(O)CCC(c1ccccc1)(c1ccccc1)c1ccccc1
inactive: [1] 62.2 µM | [2] 41.4 µM | [3] 24.7 µM | [4] 17.2 µM | [5] 37.2 µM | [6] 36.1 µM | [7] 51.1 µM | [19] 34.5 µM | [8] > 100 µM | [9] 30.3 µM | [10] 33.3 µM | [11] 31.9 µM | [12] 42.3 µM | [14] 31.6 µM | [15] 39.8 µM | [16] 52.5 µM | [17] 39 µM

From ChEMBL document CHEMBL1201862, “PubChem BioAssay data set” (2004)
